Columns and labels:
CNS nicotinic receptors = CNS nicotinic receptors (Rattus norvegicus, UniProt P09483+P12390); test: Binding to relevant receptor sites; settings: inhibition constants calculated from IC50 values by the method of Cheng et al.
Protocol: Determination of Binding to Relevant Receptor Sites
Binding of the compounds to relevant receptor sites was determined in accordance with the techniques described in U.S. Pat. No. 5,597,919 to Dull et al. Inhibition constants (Ki values), reported in nM, were calculated from the IC50 values using the method of Cheng et al., Biochem, Pharmacol. 22:3099 (1973).

dopamine release = test: Dopamine release; assay type: cell-based; settings: for Emax: amount released relative to (S)-(-)-nicotine
Protocol: Determination of Dopamine Release
Dopamine release was measured using the techniques described in U.S. Pat. No. 5,597,919 to Dull et al. Release is expressed as a percentage of release obtained with a concentration of (S)-(−)-nicotine resulting in maximal effects. Reported EC50 values are expressed in nM, and Emax values represent the amount released relative to (S)-(−)-nicotine on a percentage basis.

[1] = target: T1, muscle-type nicotinic acetylcholine receptors (Homo sapiens, UniProt P02708+P07510+Q07001); test: Interaction with muscle receptors; assay type: cell-based; settings: at a concentration of 100 uM; relative to maximal activation by (S)-(-)-nicotine
T1 construct: cell preparations expressing muscle-type nicotinic acetylcholine receptors; endogenous in cells
Excerpt: The compounds of the present invention, when employed in effective amounts in accordance with the method of the present invention, lack the ability to elicit activation of nicotinic receptors of human muscle to any significant degree. […] Generally, typical preferred compounds useful in carrying the present invention activate isotopic rubidium ion flux by less than 15 percent, often by less than 5 percent, of that maximally provided by S(−) nicotine.
Determination of Interaction with Muscle Receptors
(§1) The determination of the interaction of the compounds with muscle receptors was carried out in accordance with the techniques described in U.S. Pat. No. 5,597,919 to Dull et al. The maximal activation for individual compounds (Emax) was determined as a percentage of the maximal activation induced by (S)-(−)-nicotine. Reported Emax values represent the amount released relative to (S)-(−)-nicotine on a percentage basis.

[2] = test system: ganglionic-type nicotinic acetylcholine receptors; test: Interaction with ganglion receptors; assay type: cell-based; settings: at a concentration of 100 uM; relative to maximal activation by (S)-(-)-nicotine
Excerpt: By this is meant that a particular dose of compound resulting in prevention and/or treatment of a CNS disorder, is essentially ineffective in eliciting activation of certain ganglionic-type nicotinic receptors. […] As such, such compounds have poor ability to cause isotopic rubidium ion flux through nicotinic receptors in cell preparations derived from the adrenal gland. Generally, typical preferred compounds useful in carrying out the present invention activate isotopic rubidium ion flux by less than 15 percent, often by less than 5 percent, of that maximally provided by S(−) nicotine.
Determination of Interaction with Ganglion Receptors
as §1, with “ganglionic” for “muscle”

Chain of CNS nicotinic receptors (P09483 31-630): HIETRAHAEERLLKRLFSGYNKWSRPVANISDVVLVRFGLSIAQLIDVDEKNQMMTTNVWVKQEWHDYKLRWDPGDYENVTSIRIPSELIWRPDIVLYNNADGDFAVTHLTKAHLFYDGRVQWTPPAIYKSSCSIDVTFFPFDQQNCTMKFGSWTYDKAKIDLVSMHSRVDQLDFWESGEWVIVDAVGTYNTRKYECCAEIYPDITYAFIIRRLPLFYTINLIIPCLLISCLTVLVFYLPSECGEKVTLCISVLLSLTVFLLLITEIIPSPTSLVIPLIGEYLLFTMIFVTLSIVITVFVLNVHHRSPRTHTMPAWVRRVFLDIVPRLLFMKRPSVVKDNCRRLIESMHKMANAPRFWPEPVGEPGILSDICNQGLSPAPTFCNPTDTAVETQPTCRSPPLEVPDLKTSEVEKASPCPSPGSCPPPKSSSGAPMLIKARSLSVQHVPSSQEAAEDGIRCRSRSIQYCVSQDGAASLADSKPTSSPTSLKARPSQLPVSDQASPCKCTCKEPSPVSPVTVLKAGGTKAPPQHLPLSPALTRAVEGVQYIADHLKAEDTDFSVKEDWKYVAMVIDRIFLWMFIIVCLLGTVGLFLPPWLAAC
Chain of CNS nicotinic receptors (P12390 25-500): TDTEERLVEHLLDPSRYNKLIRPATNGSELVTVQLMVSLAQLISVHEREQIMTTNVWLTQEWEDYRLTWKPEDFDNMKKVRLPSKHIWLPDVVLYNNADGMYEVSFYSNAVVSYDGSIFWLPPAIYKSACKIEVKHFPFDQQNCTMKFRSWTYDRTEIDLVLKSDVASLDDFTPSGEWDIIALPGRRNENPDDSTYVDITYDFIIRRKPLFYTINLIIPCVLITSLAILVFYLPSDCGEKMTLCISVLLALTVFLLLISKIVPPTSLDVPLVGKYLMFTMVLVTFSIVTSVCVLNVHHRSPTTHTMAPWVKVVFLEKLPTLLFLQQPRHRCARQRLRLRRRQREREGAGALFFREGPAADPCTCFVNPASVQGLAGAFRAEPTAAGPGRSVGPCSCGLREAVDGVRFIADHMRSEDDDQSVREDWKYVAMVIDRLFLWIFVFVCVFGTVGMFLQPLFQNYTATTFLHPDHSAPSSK
T1 sequence (P02708 21-457): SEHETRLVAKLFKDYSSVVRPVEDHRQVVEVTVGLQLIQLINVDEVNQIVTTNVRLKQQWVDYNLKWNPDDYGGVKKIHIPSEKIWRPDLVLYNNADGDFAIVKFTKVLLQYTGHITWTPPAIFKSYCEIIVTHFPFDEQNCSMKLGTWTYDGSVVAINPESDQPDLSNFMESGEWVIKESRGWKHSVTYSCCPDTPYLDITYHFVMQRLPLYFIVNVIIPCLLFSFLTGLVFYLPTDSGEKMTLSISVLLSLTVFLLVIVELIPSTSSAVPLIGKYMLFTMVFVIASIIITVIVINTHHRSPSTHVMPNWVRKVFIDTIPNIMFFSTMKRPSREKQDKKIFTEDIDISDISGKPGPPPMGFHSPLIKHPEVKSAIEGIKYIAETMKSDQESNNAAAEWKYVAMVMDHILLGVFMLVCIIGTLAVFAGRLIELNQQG
T1 sequence (P11230 24-501 partner): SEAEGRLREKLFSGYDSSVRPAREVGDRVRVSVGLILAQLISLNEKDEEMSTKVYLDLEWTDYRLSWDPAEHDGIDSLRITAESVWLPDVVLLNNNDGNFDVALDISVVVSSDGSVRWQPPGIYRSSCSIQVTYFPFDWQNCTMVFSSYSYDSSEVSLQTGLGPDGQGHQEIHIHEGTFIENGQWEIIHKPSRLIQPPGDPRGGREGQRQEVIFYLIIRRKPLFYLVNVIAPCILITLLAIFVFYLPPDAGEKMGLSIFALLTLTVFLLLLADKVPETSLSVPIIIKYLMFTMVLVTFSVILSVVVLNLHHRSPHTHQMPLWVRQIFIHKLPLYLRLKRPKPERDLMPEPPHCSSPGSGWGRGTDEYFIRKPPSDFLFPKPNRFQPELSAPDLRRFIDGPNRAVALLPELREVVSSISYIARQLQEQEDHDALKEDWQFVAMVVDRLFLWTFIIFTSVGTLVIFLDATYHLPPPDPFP
T1 sequence (Q07001 22-517): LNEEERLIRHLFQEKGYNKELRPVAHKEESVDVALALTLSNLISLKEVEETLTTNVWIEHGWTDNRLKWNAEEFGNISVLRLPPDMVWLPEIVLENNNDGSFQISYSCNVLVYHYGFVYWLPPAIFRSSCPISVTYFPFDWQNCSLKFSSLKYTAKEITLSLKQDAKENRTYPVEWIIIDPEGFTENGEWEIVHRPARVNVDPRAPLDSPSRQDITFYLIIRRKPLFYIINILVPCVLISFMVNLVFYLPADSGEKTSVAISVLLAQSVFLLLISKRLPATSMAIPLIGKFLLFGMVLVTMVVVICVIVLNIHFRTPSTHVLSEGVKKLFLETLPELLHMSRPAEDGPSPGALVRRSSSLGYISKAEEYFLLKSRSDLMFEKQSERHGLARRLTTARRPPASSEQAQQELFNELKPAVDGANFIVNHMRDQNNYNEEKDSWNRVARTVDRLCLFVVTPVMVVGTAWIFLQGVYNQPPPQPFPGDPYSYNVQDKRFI
T1 sequence (P07510 23-517): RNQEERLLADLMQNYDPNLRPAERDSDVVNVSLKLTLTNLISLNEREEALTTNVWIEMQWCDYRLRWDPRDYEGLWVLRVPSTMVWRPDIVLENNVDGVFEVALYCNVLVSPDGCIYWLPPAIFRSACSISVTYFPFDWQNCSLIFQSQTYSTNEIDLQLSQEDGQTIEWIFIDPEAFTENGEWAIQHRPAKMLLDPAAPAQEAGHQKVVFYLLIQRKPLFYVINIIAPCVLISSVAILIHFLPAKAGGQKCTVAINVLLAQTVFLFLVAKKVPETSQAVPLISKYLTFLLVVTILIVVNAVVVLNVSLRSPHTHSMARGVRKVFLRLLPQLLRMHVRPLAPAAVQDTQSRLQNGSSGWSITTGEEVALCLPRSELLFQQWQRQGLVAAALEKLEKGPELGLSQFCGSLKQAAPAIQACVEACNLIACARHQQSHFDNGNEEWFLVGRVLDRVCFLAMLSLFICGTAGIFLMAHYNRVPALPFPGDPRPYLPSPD

Row | Compound | Ki (CNS nicotinic receptors) | EC50 (dopamine release) | Emax (dopamine release) | Emax at 100 µM [1] | Emax at ganglionic-type receptors [2]
1 | (4E)-N-methyl-5-(4-methyl-3-nitrophenyl)-4-penten-2-amine hemigalactarate [Sample No. 7] | 6.44 µM | – | – | – | –
2 | CNC(C)C/C=C/c1cccc(N)c1 (centres unmarked) [Sample No. 3, (E)-N-methyl-5-(3-aminophenyl)-4-penten-2-amine] | – | 0.92 µM | 78% | 2% | 6%
3 | NCC/C=C/c1cccc(N)c1 [Sample No. 1, (E)-4-(3-aminophenyl)-3-buten-1-amine] | – | 12.6 µM | 74% | 0% | 4%
4 | (4E)-N-methyl-5-(3-acetamido-4-methylphenyl)-4-penten-2-amine hemigalactarate [Sample No. 10] | 10 µM | – | – | – | –
5 | (4E)-N-methyl-5-(3-amino-4-methylphenyl)-4-penten-2-amine hemigalactarate [Sample No. 9] | 3.3 µM | – | – | – | –
6 | CNCC/C=C/c1cccc(N)c1 [Sample No. 2, (E)-N-methyl-4-(3-aminophenyl)-3-buten-1-amine] | – | 0.913 µM | 78% | 7% | 3%
7 | (4E)-N-methyl-5-(3,4-methylenedioxyphenyl)-4-penten-2-amine hemigalactarate [Sample No. 4] | 11.6 µM | – | – | – | –
8 | (4E)-N-methyl-5-(3-fluorophenyl)-4-penten-2-amine hemigalactarate [Sample No. 6] | 5.69 µM | – | – | – | –
